According to paper PMC6222614, “Disubstituted 4-Chloro-3-nitrophenylthiourea Derivatives: Antimicrobial and Cytotoxic Studies” (Molecules : A Journal of Synthetic Chemistry and Natural …, 2018):
Like-named read-outs stand apart in the source and are kept apart here.

How the values were obtained:
MT-4 cells = assay: Cytotoxicity against mock-infected MT-4 cells (MTT); assay type: cell-based, human; settings: concentration reducing viability of mock-infected MT-4 cells by 50%, 96 h
Procedure: (§1) Cell line supporting the multiplication of Human Immunodeficiency Virus type-1 (HIV-1) was the CD4+ human T-cells, derived from human hematological tumors, containing an integrated HTLV-1 genome (MT-4). Cells were purchased from American Type Culture Collection (ATCC). Human Immunodeficiency Virus type-1 (HIV-1) IIIB laboratory strain was obtained from the supernatant of the persistently infected H9/IIIB cells (NIH 1983).
(§2) Exponentially growing MT-4 cells were seeded at an initial density of 1 × 10^5 cells/mL in 96-well plates in RPMI-1640 medium, supplemented with 10% fetal bovine serum (FBS), 100 units/mL penicillin G and 100 μg/mL streptomycin. Cell cultures were then incubated at 37 °C in a humidified, 5% CO2 atmosphere, in the absence or presence of serial dilutions of tested compounds. Cell viability was determined after 96 h at 37 °C by the 3-(4,5-dimethylthiazol-2-yl)-2,5-diphenyl-tetrazolium bromide (MTT) method.

HIV-1 IIIB = assay: Anti-HIV-1 activity: protection of MT-4 cells from virus-induced cytopathogenicity (MTT); assay type: cell-based, Human Immunodeficiency Virus type-1; settings: 50% protection of MT-4 cells from HIV-1 induced cytopathogenicity, MTT, 4-day incubation, read-out: HIV-1IIIB EC50
From the text: as §1
The activity of compounds against HIV-1 was based on inhibition of virus-induced cytopathogenicity in MT-4 cell acutely infected with a multiplicity of infection (m.o.i.) of 0.01. Briefly, 50 μL of RPMI containing 1 × 10^4 MT-4 cells were added to each well of flat-bottom microtiter trays, containing 50 μL of RPMI without or with serial dilutions of test compounds. Then, 20 μL of a HIV-1 suspension containing 100 CCID50 were added. After a 4-day incubation at 37 °C, cell viability was determined by the MTT method.

[1] = Cytotoxicity against mock-infected MT-4 cells (MTT); assay type: cell-based, human; settings: human, concentration reducing viability of mock-infected MT-4 cells by 50%
Procedure: as §1, §2

CCRF-CEM = assay: Antiproliferative assay (MTT); assay type: cell-based, human; settings: concentration reducing cell proliferation by 50%, 96 h, mean of three determinations
Procedure: (§3) Cell lines derived from human hematological tumors were: CD4+ human T-cells containing an integrated HTLV-1 genome (MT-4); CD4+ human acute T-lymphoblastic leukemia (CCRF-CEM); human splenic B-lymphoblastoid cells (WIL-2NS); human acute B-lymphoblastic leukemia (CCRF-SB). Cells were seeded at an initial density of 1 × 10^5 cells/mL in 96 well plates in RPMI-1640 medium supplemented with 10% fetal calf serum (FCS), 100 units/mL penicillin G and 100 μg/mL streptomycin.
(§4) Cell lines derived from human solid tumors were: Skin melanoma (SK-MEL-28); prostate carcinoma (DU-145). Normal tissues foreskin fibroblasts (CRL-7065) were also used. Cells were seeded at 1 × 10^5 cells/mL in 96 well plates in specific media supplemented with 10% FCS and antibiotics, as above. Cell cultures were then incubated at 37 °C in a humidified, 5% CO2 atmosphere in the absence or presence of serial dilutions of test compounds. Cell viability was determined after 96 h at 37 °C by the MTT method.

CCRF-SB = assay: Antiproliferative assay (MTT); assay type: cell-based, human; settings: concentration reducing cell proliferation by 50%, 96 h, mean of three determinations
Procedure: as §3, §4

MT-4 = assay: Antiproliferative assay (MTT); assay type: cell-based, human; settings: concentration reducing cell proliferation by 50%, 96 h, mean of three determinations
Procedure: as §3, §4

WIL-2NS = assay: Antiproliferative assay (MTT); assay type: cell-based, human; settings: concentration reducing cell proliferation by 50%, 96 h, mean of three determinations
Procedure: as §3, §4

DU145 = assay: Antiproliferative assay (MTT); assay type: cell-based, human; settings: prostate carcinoma, concentration reducing cell proliferation by 50%, 96 h
Procedure: as §4

SK-MEL-28 = assay: Antiproliferative assay (MTT); assay type: cell-based, human; settings: skin melanoma, concentration reducing cell proliferation by 50%, 96 h
Procedure: as §4

CRL7065 = assay: Antiproliferative assay (MTT), normal cell line; assay type: cell-based, human; settings: normal foreskin fibroblasts, concentration reducing cell proliferation by 50%, 96 h
Procedure: as §4

SMILES | EC50 (HIV-1 IIIB) [µM] | EC50 (HIV-1 IIIB; Human immunodeficiency virus 1, IIIB, MT4, 96 h) [µM] | CC50 (MT-4 cells) [µM] | CC50 at 96 h [1] [µM] | CC50 (CCRF-CEM) [µM] | CC50 (CCRF-SB) [µM] | CC50 (MT-4) [µM] | CC50 (WIL-2NS) [µM] | CC50 (DU145) [µM] | CC50 (SK-MEL-28) [µM] | CC50 (CRL7065) [µM]
O=[N+]([O-])c1cc(NC(=S)Nc2ccccc2F)ccc1Cl [Compound 7] | > 13 |  | 13 |  |  |  |  |  |  |  | 
O=C1Nc2ccc(Cl)cc2[C@@](C#CC2CC2)(C(F)(F)F)O1 [Efavirenz, reference compound] |  | 0.002 |  | 46 |  |  |  |  |  |  | 
O=[N+]([O-])c1cc(NC(=S)Nc2cccc(Br)c2)ccc1Cl [Compound 5] | > 8 |  | 8 |  |  |  |  |  |  |  | 
O=[N+]([O-])c1cc(NC(=S)Nc2ccc(I)cc2)ccc1Cl [Compound 17] | > 7.8 |  | 7.8 |  | 6 | 8.3 | 7.8 | 7 | 11 | 6 | 30
O=[N+]([O-])c1cc(NC(=S)Nc2cccc(C(F)(F)F)c2)ccc1Cl [Compound 15] | > 8 |  | 8 |  |  |  |  |  |  |  | 
O=[N+]([O-])c1cc(NC(=S)Nc2ccc(Br)cc2)ccc1Cl [Compound 6] | > 6.6 |  | 6.6 |  | 6 | 8 | 6.6 | 7 | 6 | 6 | 30
N#Cc1ccc(NC(=S)Nc2ccc(Cl)c([N+](=O)[O-])c2)cc1 [Compound 19] | > 8.2 |  | 8.2 |  | 9.1 | 9.2 | 8.2 | 10 | 8 | 9 | 20
O=[N+]([O-])c1cc(NC(=S)Nc2ccc(F)cc2)ccc1Cl [Compound 9] | > 7 |  | 7 |  | 9.1 | 9.4 | 7 | 11 | 8.4 | 20 | 22
CC(NC(=S)Nc1ccc(Cl)c([N+](=O)[O-])c1)c1ccccc1 (stereo not shown) [Compound 26] | > 16.7 |  | 16.7 |  |  |  |  |  |  |  | 
Cc1ccc(Cl)cc1NC(=S)Nc1ccc(Cl)c([N+](=O)[O-])c1 [Compound 14] | > 8.2 |  | 8.2 |  | 9.4 | 9.8 | 8.2 | 10 | 7.8 | 9 | 18
O=[N+]([O-])c1cc(NC(=S)Nc2ccccc2Br)ccc1Cl [Compound 4] |  |  | 9.6 |  | 22 | 22 | 9.6 | 30 | 8 | 15 | 20
CC[C@@]1(O)C(=O)OCc2c1cc1n(c2=O)Cc2cc3ccccc3nc2-1 [Camptotecin, reference compound] |  |  |  |  | 0.003 | 0.004 | 0.004 | 0.005 | 0.08 | 0.07 | 0.3

The next lines start with results.

EC50 (HIV-1 IIIB) [µM] | EC50 (HIV-1 IIIB; Human immunodeficiency virus 1, IIIB, MT4, 96 h) [µM] | SMILES | CC50 (MT-4 cells) [µM] | CC50 at 96 h [1] [µM] | CC50 (CCRF-CEM) [µM] | CC50 (CCRF-SB) [µM] | CC50 (MT-4) [µM] | CC50 (WIL-2NS) [µM] | CC50 (DU145) [µM] | CC50 (SK-MEL-28) [µM] | CC50 (CRL7065) [µM]
> 7 |  | O=[N+]([O-])c1ccc(NC(=S)Nc2ccc(Cl)c([N+](=O)[O-])c2)cc1 [Compound 18] | 7 |  |  |  |  |  |  |  | 
> 9 |  | O=[N+]([O-])c1cc(NC(=S)Nc2cccc(F)c2)ccc1Cl [Compound 8] | 9 |  |  |  |  |  |  |  | 
> 7.3 |  | O=[N+]([O-])c1cc(NC(=S)Nc2ccc(F)c(Cl)c2)ccc1Cl [Compound 10] | 7.3 |  | 5 | 8.8 | 7.3 | 7 | 6.5 | 6.6 | 16
> 8.8 |  | O=[N+]([O-])c1cc(NC(=S)Nc2ccccc2Cl)ccc1Cl [Compound 1] | 8.8 |  | 13 | 14 | 8.8 | 14 | 7.6 | 8.7 | 18
> 8 |  | O=[N+]([O-])c1cc(NC(=S)Nc2ccc(Cl)cc2Cl)ccc1Cl [Compound 12] | 8 |  |  |  |  |  |  |  | 
> 7 |  | O=[N+]([O-])c1cc(NC(=S)Nc2ccc(Cl)cc2)ccc1Cl [Compound 3] | 7 |  |  |  |  |  |  |  | 
> 7 |  | O=[N+]([O-])c1cc(NC(=S)Nc2ccc(C(F)(F)F)cc2)ccc1Cl [Compound 16] | 7 |  |  |  |  |  |  |  | 
> 7 |  | O=[N+]([O-])c1cc(NC(=S)Nc2cccc(Cl)c2)ccc1Cl [Compound 2] | 7 |  |  |  |  |  |  |  | 
